≈ marks a conversion by molar mass, not a printed value. Read-outs that look alike come from different tables or passages of the source. Bounds are passed on as bounds.

One test deals with human (hACC2) (Homo sapiens, UniProt O00763). Description: In vitro ACC inhibition assay (ADP-Glo), hACC2. Particulars: 5 nM ACC2, 20 μM ATP, 20 μM acetyl-CoA. It is filed as biochemical. On the procedure: The detailed procedure is as follows. […] 10 μL ADP glo reagent was added. […] 20 μL kinase detection reagent was added.
The subject of test [1] is Phytophthora capsici (Pc). Nature of the test: Growth inhibition assay of fungal pathogens, Pc. The note with it: 48 h. It counts as cell-based. In outline:
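Percent inhibition derived at 48 hours from OD600 and visual scores versus 2% DMSO control, with media+DMSO blank as background. Spore inocula in 17% V8 medium were sized from 48 h growth curves; compounds tested at final 50/10/2 or 2/0.4/0.08 ppm.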

Setting [2] is: growth inhibition at 48 hours vs 2% DMSO control, read-out: Concentration at 90% Inhibition Pc.
[3] abbreviates: growth inhibition vs 2% DMSO control at 48 hours, read-out: Concentration at 90% Inhibition Pc.

Chain of human (hACC2) (O00763 whole entry): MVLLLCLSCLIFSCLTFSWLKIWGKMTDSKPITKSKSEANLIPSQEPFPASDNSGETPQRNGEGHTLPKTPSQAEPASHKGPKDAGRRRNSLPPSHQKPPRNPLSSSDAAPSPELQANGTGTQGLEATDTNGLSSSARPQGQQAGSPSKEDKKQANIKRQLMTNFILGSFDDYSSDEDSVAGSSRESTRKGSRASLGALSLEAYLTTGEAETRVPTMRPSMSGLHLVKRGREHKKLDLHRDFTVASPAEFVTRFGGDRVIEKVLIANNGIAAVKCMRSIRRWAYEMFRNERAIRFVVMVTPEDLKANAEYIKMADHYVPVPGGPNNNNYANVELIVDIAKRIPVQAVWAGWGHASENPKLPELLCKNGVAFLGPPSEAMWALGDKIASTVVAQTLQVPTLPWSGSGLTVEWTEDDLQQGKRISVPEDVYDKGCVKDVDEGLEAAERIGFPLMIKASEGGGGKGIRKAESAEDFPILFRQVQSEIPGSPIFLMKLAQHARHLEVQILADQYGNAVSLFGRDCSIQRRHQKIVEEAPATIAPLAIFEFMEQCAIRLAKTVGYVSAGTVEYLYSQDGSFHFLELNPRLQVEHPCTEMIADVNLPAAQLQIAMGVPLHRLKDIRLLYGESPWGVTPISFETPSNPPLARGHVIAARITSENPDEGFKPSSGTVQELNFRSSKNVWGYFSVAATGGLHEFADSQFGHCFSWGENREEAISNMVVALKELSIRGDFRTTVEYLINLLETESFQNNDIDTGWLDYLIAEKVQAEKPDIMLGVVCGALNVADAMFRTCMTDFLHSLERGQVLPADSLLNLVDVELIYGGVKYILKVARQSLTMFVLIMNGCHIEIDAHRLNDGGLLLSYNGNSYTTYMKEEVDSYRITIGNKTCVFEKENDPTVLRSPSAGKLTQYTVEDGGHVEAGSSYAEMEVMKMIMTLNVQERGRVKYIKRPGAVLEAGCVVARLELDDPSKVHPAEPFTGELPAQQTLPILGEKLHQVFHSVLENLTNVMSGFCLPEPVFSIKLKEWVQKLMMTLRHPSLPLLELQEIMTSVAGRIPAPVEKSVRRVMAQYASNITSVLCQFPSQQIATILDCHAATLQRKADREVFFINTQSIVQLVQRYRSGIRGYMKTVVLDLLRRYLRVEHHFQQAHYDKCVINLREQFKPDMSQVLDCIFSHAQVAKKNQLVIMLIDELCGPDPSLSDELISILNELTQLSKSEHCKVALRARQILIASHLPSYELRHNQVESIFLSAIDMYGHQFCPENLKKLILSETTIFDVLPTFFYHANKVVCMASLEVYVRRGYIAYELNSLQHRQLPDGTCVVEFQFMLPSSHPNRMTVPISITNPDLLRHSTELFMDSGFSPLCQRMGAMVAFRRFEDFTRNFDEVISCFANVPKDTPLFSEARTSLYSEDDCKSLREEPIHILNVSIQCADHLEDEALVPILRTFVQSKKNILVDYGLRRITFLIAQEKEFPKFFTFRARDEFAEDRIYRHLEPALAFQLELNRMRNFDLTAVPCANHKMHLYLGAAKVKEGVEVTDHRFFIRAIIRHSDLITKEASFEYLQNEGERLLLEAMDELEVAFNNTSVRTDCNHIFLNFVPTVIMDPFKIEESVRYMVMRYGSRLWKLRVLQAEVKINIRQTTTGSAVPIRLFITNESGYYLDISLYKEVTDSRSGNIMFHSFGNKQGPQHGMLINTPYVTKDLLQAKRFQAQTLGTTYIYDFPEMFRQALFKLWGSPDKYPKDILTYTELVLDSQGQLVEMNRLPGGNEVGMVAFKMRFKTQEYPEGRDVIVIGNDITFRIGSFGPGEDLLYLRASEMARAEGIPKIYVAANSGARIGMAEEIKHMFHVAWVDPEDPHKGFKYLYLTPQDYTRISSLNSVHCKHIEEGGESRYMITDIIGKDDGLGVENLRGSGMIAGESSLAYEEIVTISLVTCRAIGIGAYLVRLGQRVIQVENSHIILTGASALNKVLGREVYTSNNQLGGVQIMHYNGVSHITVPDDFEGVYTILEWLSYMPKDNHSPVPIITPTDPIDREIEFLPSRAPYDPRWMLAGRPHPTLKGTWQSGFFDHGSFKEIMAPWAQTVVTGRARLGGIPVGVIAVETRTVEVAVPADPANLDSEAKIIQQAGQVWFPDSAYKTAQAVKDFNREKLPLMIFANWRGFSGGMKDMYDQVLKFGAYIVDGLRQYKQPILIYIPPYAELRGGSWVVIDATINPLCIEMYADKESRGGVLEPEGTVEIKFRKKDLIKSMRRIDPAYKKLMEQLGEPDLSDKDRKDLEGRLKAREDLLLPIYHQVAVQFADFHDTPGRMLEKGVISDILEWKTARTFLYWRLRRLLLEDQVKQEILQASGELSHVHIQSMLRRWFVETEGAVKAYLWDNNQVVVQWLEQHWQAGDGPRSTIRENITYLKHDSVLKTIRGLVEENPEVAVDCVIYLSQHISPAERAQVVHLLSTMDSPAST

`COc1ccc(F)cc1[C@H](Cn1c(=O)n([C@H](C)C(=O)NC(C)C)c(=O)c2c(C)c(-n3nccn3)sc21)OCCO` [Compound I-89, (R)-2-(1-((R)-2-(5-fluoro-2-methoxyphenyl)-2-(2-hydroxy-ethoxy)ethyl)-5-methyl-2,4-dioxo-6-(2H-1,2,3-triazol-2-yl)-1,4-dihydrothieno[2,3-d]pyrimidin-3(2H)-yl)-N-isopropylpropanamide]: the IC50 on human (hACC2) (Table 2a) was in the range of 0.01 to 0.04 µM; at human (hACC2) (Table 2b, additional results) it was 0.005 to 0.01 µM. Besides, the IC90 is > 50 mg/L in test [1] (read-out: Concentration at 90% Inhibition Pc, Phytophthora capsici, growth inhibition at 48 hours vs 2% DMSO control) and > 50 mg/L in test [1] (read-out: Concentration at 90% Inhibition Pc, Phytophthora capsici, growth inhibition vs 2% DMSO control at 48 hours).

As to `COc1ccc(F)cc1[C@H](Cn1c(=O)n(C(C)(C)C(=O)NC(C)C)c(=O)c2c(C)c(-n3nccn3)sc21)OCCC(N)=O` [Compound I-90, (R)-2-(1-(2-(3-amino-3-oxopropoxy)-2-(5-fluoro-2-metho-xyphenyl)ethyl)-5-methyl-2,4-dioxo-6-(2H-1,2,3-triazol-2-yl)-1,4-dihydro-thieno[2,3-d]pyrimidin-3(2H)-yl)-N-isopropyl-2-methylpropanamide], the IC50 at human (hACC2) (Table 2a) lay within 0.01 to 0.04 µM; against human (hACC2) (Table 2b, additional results), 0.01 to 0.04 µM. The IC90 in test [1] (setting [2]) and in test [1] (setting [3]) was > 50 mg/L each time.

As to `COc1ccc(F)cc1[C@H](Cn1c(=O)n(C(C)(C)C(=O)NC(C)C)c(=O)c2c(C)c(-n3nccn3)sc21)OCCC#N` [Compound I-91, (R)-2-(1-(2-(2-cyanoethoxy)-2-(5-fluoro-2-methoxy-phenyl)ethyl)-5-methyl-2,4-dioxo-6-(2H-1,2,3-triazol-2-yl)-1,4-dihydro-thieno[2,3-d]pyrimidin-3(2H)-yl)-N-isopropyl-2-methylpropanamide], the IC50 against human (hACC2) (Table 2a) is 0.01 to 0.04 µM; against human (hACC2) (Table 2b, additional results), 0.01 to 0.04 µM. Also, the IC90 in test [1] (setting [2]) was determined as 2 mg/L (≈ 3.35 µM); in test [1] (setting [3]), 10 mg/L (≈ 16.7 µM).

Values taken from patent publication US10800791B2, “Triazole ACC inhibitors and uses thereof” (Gilead Apollo, LLC, priority 2015, dated 2020).
